Source: US11724997B2, “Compounds and compositions for treating conditions associated with APJ receptor activity” (Annapurna Bio, Inc., priority 2018, dated 2023)

molecular target: T1, APJ Receptor (Homo sapiens, UniProt P35414); test: APJ cAMP assay: inhibition of forskolin-stimulated cAMP, enzyme fragment complementation, in CHO-K1 cells stably expressing the APJ Receptor; format: cell-based; conditions: CHO-K1 cell line (DiscoverX) stably expressing APJ Receptor; EC80 forskolin; 30 minutes at 37° C.; read-out: APJ cAMP EC50 Potency range
T1 sequence (P35414 1-380): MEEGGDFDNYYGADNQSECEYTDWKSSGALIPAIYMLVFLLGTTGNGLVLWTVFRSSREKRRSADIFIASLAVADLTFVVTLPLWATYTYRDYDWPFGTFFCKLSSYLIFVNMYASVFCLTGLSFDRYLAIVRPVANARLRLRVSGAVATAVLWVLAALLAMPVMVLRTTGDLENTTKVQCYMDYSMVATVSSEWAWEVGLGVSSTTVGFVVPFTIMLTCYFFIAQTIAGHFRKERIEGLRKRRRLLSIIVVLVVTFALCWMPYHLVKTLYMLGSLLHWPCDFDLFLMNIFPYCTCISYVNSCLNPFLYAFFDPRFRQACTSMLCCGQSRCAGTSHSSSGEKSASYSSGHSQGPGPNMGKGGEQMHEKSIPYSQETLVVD
Source text: Activation of APJ receptor is known to inhibit forskolin-stimulated cyclic AMP (cAMP) production in cells in a pertussis toxin-sensitive manner which indicates primary coupling to the GαI subunit of the G protein heterotrimeric complex. In addition to signaling through G protein and inhibition of cAMP, APJ receptor activation also results in β-arrestin recruitment, receptor internalization and activation of extracellular-regulated kinases (ERKs).
In order to optimize functional activity directed toward Gi coupling we utilized a CHO-K1 cell line developed by DiscoverX stably expressing the APJ Receptor. Cells expressing APJR receptor were plated in a 384-well microtiter plates and incubated overnight at 37° C. with 5% CO2 to allow the cells to attach and grow. Media was then aspirated from the cells and replaced with 15 uL 2:1 Hanks Balanced Salt Solution (HBSS)/10 mM Hepes. cAMP XS+ Ab reagent. Five microliters (5 uL) of previously generated compound sample stocks at 4× final concentration in assay buffer containing 4×EC80 forskolin were then added to the cells and allowed to incubate at 37° C. for 30 minutes.
After incubation the assay signal was generated using a technology termed enzyme fragment complementation (EFC). In EFC the enzyme B-galactosidase is split into two complementary portions (EA and ED). The fragment ED is fused to cAMP and in the assay format competes with endogenous cAMP for binding to a cAMP specific antibody. Activated B-Gal is formed when exogenous EA fragment binds to free ED-cAMP (not bound to cAMP specific antibody). Activated enzyme levels are detected through conversion of B-gal chemiluminescent substrate which generates a detectable luminescence signal and read on standard microtiter plate.
The methodology for detection of cAMP using EFC requires incubation with 20 uL of cAMP XS+ ED/CL lysis cocktail for one hour followed by incubation with 20 uL cAMP XS+ EA reagent for three hours at room temperature. Microplates were read following signal generation with a PerkinElmer Envision instrument utilizing chemiluminescent signal detection.
Compound activity was analyzed using CBIS data analysis suite (ChemInnovation, CA).
Percentage activity was calculated using the following formula: % Activity=[…]×(1−(mean RLU of test sample−mean RLU of Max control)/(mean RLU of vehicle control−mean RLU of Max control))
The biological activity of the exemplified compounds of this invention determined by the assay described above is shown in Table 1. The APJ cAMP EC50 potency ranges are as follows: A: EC50<1 nM; B: 1≤EC50<100 nM; and C: 100≤EC50<10,000 nM.

| EC50 [µM] | SMILES |
| --- | --- |
| 0.1 to 10 | COc1cccc(OC)c1-n1c(C(=O)NS(=O)(=O)Cc2ncccn2)nnc1-c1cncc(C)c1 [Example 59, 4-(2,6-Dimethoxyphenyl)-5-(5-methylpyridin-3-yl)-N-((pyrimidin-2-ylmethyl)sulfonyl)-4H-1,2,4-triazole-3-carboxamide] |
| < 0.001 | CCOc1cccc(-c2nnc(C(=O)NS(=O)(=O)Cc3ncc(F)cn3)n2-c2c(OC)cccc2OC)n1 [Example 42, 4-(2,6-Dimethoxyphenyl)-5-(6-ethoxypyridin-2-yl)-N-(((5-fluoropyrimidin-2-yl)methyl)sulfonyl)-4H-1,2,4-triazole-3-carboxamide] |
| < 0.001 | CCOc1cccc(-c2nnc(C(=O)NS(=O)(=O)CCc3ccccn3)n2-c2c(OC)cccc2OC)n1 [Example 51, 4-(2,6-Dimethoxyphenyl)-5-(6-ethoxypyridin-2-yl)-N-((2-(pyridin-2-yl)ethyl)sulfonyl)-4H-1,2,4-triazole-3-carboxamide] |
| < 0.001 | CCOc1cccc(-c2nnc(C(=O)NS(=O)(=O)Cc3ncc(Cl)cn3)n2-c2c(OC)cccc2OC)n1 [Example 43, N-(((5-chloropyrimidin-2-yl)methyl)sulfonyl)-4-(2,6-dimethoxyphenyl)-5-(6-ethoxypyridin-2-yl)-4H-1,2,4-triazole-3-carboxamide] |
| 0.1 to 10 | COc1cccc(OC)c1-n1c(C(=O)NS(=O)(=O)Cc2ccccc2)nnc1-c1nc(C2CC2)n[nH]1 [Example 65, N-(benzylsulfonyl)-5-cyclopropyl-4′-(2,6-dimethoxyphenyl)-2H,4′H-[3,3′-bi(1,2,4-triazole)]-5′-carboxamide] |
| 0.001 to 0.1 | COc1cccc(OC)c1-n1c(C(=O)NS(=O)(=O)Cc2ncccn2)nnc1-c1cccc(OC(F)(F)F)n1 [Example 58, 4-(2,6-Dimethoxyphenyl)-N-((pyrimidin-2-ylmethyl)sulfonyl)-5-(6-(trifluoromethoxy)pyridin-2-yl)-4H-1,2,4-triazole-3-carboxamide] |
| 0.001 to 0.1 | COc1cccc(-c2nnc(C(=O)NS(=O)(=O)Cc3ccccc3)n2-c2c(F)cccc2OC)n1 [Example 63, N-(benzylsulfonyl)-4-(2-fluoro-6-methoxyphenyl)-5-(6-methoxypyridin-2-yl)-4H-1,2,4-triazole-3-carboxamide] |
| 0.1 to 10 | COc1cccc(-c2nnc(C(=O)NS(=O)(=O)Cc3ccccc3)n2-c2c(F)cccc2F)n1 [Example 61, N-(benzylsulfonyl)-4-(2,6-difluorophenyl)-5-(6-methoxypyridin-2-yl)-4H-1,2,4-triazole-3-carboxamide] |
| < 0.001 | CCOc1cccc(-c2nnc(C(=O)NS(=O)(=O)Cc3ncccc3F)n2-c2c(OC)cccc2OC)n1 [Example 52, 4-(2,6-Dimethoxyphenyl)-5-(6-ethoxypyridin-2-yl)-N-(((3-fluoropyridin-2-yl)methyl)sulfonyl)-4H-1,2,4-triazole-3-carboxamide] |

Further lines, the molecule ahead of its results:

| SMILES | EC50 [µM] |
| --- | --- |
| COc1cccc(-c2nnc(C(=O)NS(=O)(=O)[C@@H](C)c3ccccc3)n2-c2c(OC)cccc2OC)n1 (single isomer, unassigned) [Example 32] | 0.001 to 0.1 |
| COc1cccc(OC)c1-n1c(C(=O)NS(=O)(=O)Cc2ccccc2)nnc1-c1cccc(OC(F)F)n1 [Example 21, N-(benzylsulfonyl)-5-(6-(difluoromethoxy)pyridin-2-yl)-4-(2,6-dimethoxyphenyl)-4H-1,2,4-triazole-3-carboxamide] | 0.001 to 0.1 |
| COc1ccn(-c2nnc(C(=O)NS(=O)(=O)Cc3ccccc3)n2-c2c(OC)cccc2OC)n1 [Example 10, N-(enzylsulfonyl)-4-(2,6-dimethoxyphenyl)-5-(3-methoxy-1H-pyrazol-1-yl)-4H-1,2,4-triazole-3-carboxamide] | 0.1 to 10 |
| COc1cccc(OC)c1-n1c(C(=O)NS(=O)(=O)Cc2ccccc2)nnc1-c1ncc(C)c(OC)n1 [Example 12, N-(benzylsulfonyl)-4-(2,6-dimethoxyphenyl)-5-(4-methoxy-5-methylpyrimidin-2-yl)-4H-1,2,4-triazole-3-carboxamide] | 0.1 to 10 |
| COc1cccc(OC)c1-n1c(C(=O)NS(=O)(=O)Cc2ccccc2)nnc1-c1cccc(C)n1 [Example 14, N-(benzylsulfonyl)-4-(2,6-dimethoxyphenyl)-5-(6-methylpyridin-2-yl)-4H-1,2,4-triazole-3-carboxamide] | 0.001 to 0.1 |
| CCn1ccc(-c2nnc(C(=O)NS(=O)(=O)Cc3ccccc3)n2-c2c(OC)cccc2OC)n1 [Example 5, N-(benzylsulfonyl)-4-(2,6-dimethoxyphenyl)-5-(1-ethyl-1H-pyrazol-3-yl)-4H-1,2,4-triazole-3-carboxamide] | 0.001 to 0.1 |
| CCOCc1nnc(C(=O)NS(=O)(=O)Cc2ccccc2)n1-c1c(OC)cccc1OC [Example 7, N-(benzylsulfonyl)-4-(2,6-dimethoxyphenyl)-5-(ethoxymethyl)-4H-1,2,4-triazole-3-carboxamide] | 0.1 to 10 |
| COc1cccc(OC)c1-n1c(C(=O)NS(=O)(=O)Cc2ccccc2)nnc1-c1ccn(C)n1 [Example 4, N-(benzylsulfonyl)-4-(2,6-dimethoxyphenyl)-5-(1-methyl-1H-pyrazol-3-yl)-4H-1,2,4-triazole-3-carboxamide] | 0.001 to 0.1 |
| COc1cccc(OC)c1-n1c(C(=O)NS(=O)(=O)Cc2ccccc2)nnc1-c1cccc(OC2CCC2)n1 [Example 18, N-(benzylsulfonyl)-5-(6-cyclobutoxypyridin-2-yl)-4-(2,6-dimethoxyphenyl)-4H-1,2,4-triazole-3-carboxamide] | 0.001 to 0.1 |
| COc1cccc(-c2nnc(C(=O)NS(=O)(=O)CC3CC3)n2-c2c(OC)cccc2OC)n1 [Example 35, N-((cyclopropylmethyl)sulfonyl)-4-(2,6-dimethoxyphenyl)-5-(6-methoxypyridin-2-yl)-4H-1,2,4-triazole-3-carboxamide] | 0.001 to 0.1 |
| CCOc1cccc(-c2nnc(C(=O)NS(=O)(=O)c3ccccc3)n2-c2c(OC)cccc2OC)n1 [Example 1, 4-(2,6-dimethoxyphenyl)-5-(6-ethoxypyridin-2-yl)-N-(phenylsulfonyl)-4H-1,2,4-triazole-3-carboxamide] | < 0.001 |
| COc1cccc(OC)c1-n1c(C(=O)NS(=O)(=O)Cc2ncccn2)nnc1-c1cc(C)ccn1 [Example 25, 4-(2,6-Dimethoxyphenyl)-5-(4-methylpyridin-2-yl)-N-((pyrimidin-2-ylmethyl)sulfonyl)-4H-1,2,4-triazole-3-carboxamide] | 0.1 to 10 |
| COc1cccc(OC)c1-n1c(C(=O)NS(=O)(=O)Cc2ccccc2)nnc1-c1ccc(C)cn1 [Example 15, N-(benzylsulfonyl)-4-(2,6-dimethoxyphenyl)-5-(5-methylpyridin-2-yl)-4H-1,2,4-triazole-3-carboxamide] | 0.001 to 0.1 |
| CCOc1cccc(-c2nnc(C(=O)NS(C)(=O)=O)n2-c2c(OC)cccc2OC)n1 [Example 9, 4-(2,6-Dimethoxyphenyl)-5-(6-ethoxypyridin-2-yl)-N-(methylsulfonyl)-4H-1,2,4-triazole-3-carboxamide] | 0.001 to 0.1 |
| COc1cccc(-c2nnc(C(=O)NS(=O)(=O)Cc3cccc(F)c3)n2-c2c(OC)cccc2OC)n1 [Example 30, 4-(2,6-Dimethoxyphenyl)-N-((3-fluorobenzyl)sulfonyl)-5-(6-methoxypyridin-2-yl)-4H-1,2,4-triazole-3-carboxamide] | 0.001 to 0.1 |
